Data on 5 molecules can be found in US12673918B2, “Small molecule RPN13 inhibitors with antitumor properties” (The Johns Hopkins University, priority 2019, dated 2026).

Data set [1] is described as follows: Repeat dose MTD in healthy female CD1 mice. The note with it: mouse, in vivo, 3 repeated doses every third day. The text has this:
The starting doses were based on previous studies with RA183. Doses were escalated incrementally in steps of not more than 50%. When either of these endpoints was met, dose escalation was halted and the prior dose was set as the MTD.

For data set [2], the system named is RPE1-ATMKO. The data set is described as follows: MTT cytotoxicity assay, RPE1-ATMKO. The conditions noted are these: read-out: cytotoxicity IC50 RPE1-ATMKO. (Tetrazolium dyes change colour on reduction, which living cells bring about.)
Procedure: Cell lines and cytotoxicity assays: All cell lines were obtained from the American Type Culture Collection (ATCC) and cultured in the specified medium supplemented with 10% fetal bovine serum, 100 IU/mL penicillin, and 100 μg/mL streptomycin at 37° C. in a humidified 5% CO2/95% air incubator. […] To assess drug cytotoxicity, cells were seeded at 2,500 cells/well (10,000 cells/well for MM lines) in 100 μL medium in 96-well plate and after 24 treated with compounds for 72 h, incubated according to the manufacturer's protocol with the Thiazolyl Blue Tetrazolium Bromide (Sigma, M2128) and A570 measured using a Benchmark Plus microplate spectrophotometer (BIO-RAD). IC50 data was analyzed by Graphpad Prism software. In the chirality studies the cells were treated with compounds for 48 h, and the cells were incubated and measured via the preceeding protocols.
Data set [3] concerns the target RPN13 (Homo sapiens, UniProt Q16186). The data set is described as follows: RA183B competition / direct biotin labelling of RPN13 in cell lysate. The note with it: SKOV3 cell lysate pre-treated with compound, labelled with RA183B. Format: binding. The procedure:
It has been shown preciously that RA183 adducts Cysteine 88 of RPN13 (13). […] Samples were subjected to SDS-PAGE and transferred to a PVDF membrane. The membrane was probed with HRP-Streptavidin antibody, and the blot developed using chemiluminescence.
A direct labelling assay in cell lysate of ES2, a human ovarian cancer-derived cell line, using RA413B and RA183B was performed.
Biotin labeling Assay: Clarified cell lysate in MPER buffer was pretreated with streptavidin magna beads for 45 min at 4° C. to deplete non-specific biotinylated proteins in the cell lysate. The beads were separated and 40 μL of the pre-cleared cell lysate was incubated with compounds (20 μM) for 45 min at 4° C., and then treated with RA183B, RA190B, or RA413SB (10 μM) for 45 min at 4° C. Next, the samples were mixed with Laemmli sample buffer (BioRad) and boiled for 5 min. […] (24 V). The membrane was blocked with 5% BSA in PBST for 1 hr at RT and washed for 20 minutes (3× with PBST). Then the membrane was probed with HRP-streptavidin (1:10,000 in PBST) for 1 hr at RT, washed for 30 min (3× with PBST), and developed using HyGLO chemiluminescent detection reagent (Denville) for biotin detection.

For data set [4], the system named is HeLa cells. The data set is described as follows: XTT cytotoxicity assay, HeLa. Format: cell-based, human. The note with it: Homo sapiens, HeLa, read-out: IC50 HeLa. The source says:
The impact of substituents of the aromatic ring on the potency of molecules was also examined. The presence of either an electron withdrawing group (EWG) or an electron donating group (EDG) influences the reactivity of a Michael acceptor towards the target protein but can also impact specificity/selectivity.

Data set [5] deals with ID8-vegf. The note with it: mouse.
The subject of data set [6] is ID8 (murine). The data set is described as follows: MTT cytotoxicity assay, ID8. Format: cell-based. The note with it: Mus musculus, 48 h, read-out: IC50 ID8 (murine).
Data set [7] has as its system A2780. The conditions noted are these: human.
Data set [8] deals with proteasome (4UbFL reporter). The data set is described as follows: 4UbFL proteasome reporter, transfected 293T cells. The format is cell-based. The conditions noted are these: 4 hours. The source says:
FIG. 9A illustrates 293T cells in 96 well plates transiently transected with the 4UbFL plasmid and 48 hr later treated with the indicated doses of each compound for 4 hr. Cells were lysed and luciferase activity assessed using a luminometer.
To monitor proteasome activity in living cells, a construct was used expressing a fusion protein comprising four tandem repeats of ubiquitin fused in frame with firefly luciferase (4UbFL) (41) to cause this otherwise stable reporter protein to undergo rapid proteolytic degradation via the proteasome. To assess their capacity to inhibit cellular proteasome function, 293T cells were transiently transfected with the 4UbFL construct and then […] treated with compounds for 4 hours prior to assay of luciferase activity. Like bortezomib, RA375 induced a dramatic increase in bioluminescence, consistent with stabilization of 4UbFL, in a dose dependent manner. At very high concentrations the luciferase activity dropped because of cellular toxicity.
Reporter assays: Sub-confluent cultures of cells were transfected with 4Ub-FL or FL plasmid using TransIT 2020 reagent (Minis Bio). […] Luciferase activity in cell lysate was determined with a luciferase assay kit (Promega) according to the manufacturer's instructions. Bioluminescence was measured by using a Glomax Multidetection system (Promega).

Data set [9] deals with proteasome (4UbFL reporter). Briefly: 4UbFL reporter in leg muscle of BALB/c mice. The note with it: single i.p. administration to mice. The format is in vivo. The procedure:
FIG. 9B illustrates BALB/c mice electroporated with 4UbFL plasmid (10 μg/mouse) in the leg muscle and the basal luminescence was recorded after 48 hr. Groups of mice (n=5) were treated with different compound (40 mg/Kg) or vehicle alone (25% (w/v) β-Hydroxypropylcyclodextrin in water). Mice were imaged for bioluminiscence activity using IVIS instrument at 4, 24, 48, 72 and 96 hr.
To test for proteasome inhibition by RA375 in vivo, an electroporation delivery was employed to transfect the leg muscle of mice with the 4UbFL reporter plasmid. […] At two days post electroporation of the 4UbFL DNA, mice were imaged, and base line luminescence recorded. […] After 4 h, 24 h, 48 h, 72 h and 96 h post treatment mice were again imaged, and bioluminescence was quantified.
Electroporation Method: A patch of CD1 or Balb/c mouse leg was shaved of hair and 10 μg 4Ub-FL plasmid in 20 μL of PBS was injected into the quadriceps femoralis muscle followed immediately by injection of the 2 Needle Array to 5 mm depth encompassing the injection site and square wave electroporation (ElectroSquarePorator 833, BTX-2 Needle array 5 mm gap, Harvard apparatus) delivered as eight pulses at 106V for 20 ms with 200 ms intervals. […] Equally sized areas were analyzed using Living Image 2.20 software. […]

Data set [10] concerns ES2 cells. The data set is described as follows: Annexin V apoptosis flow cytometry, ES2 cells. The format is cell-based, human. The conditions noted are these: ES2, 12 hr. A general note: A flow cytometer gives signals particle by particle.
Procedure: FIG. 7D illustrates surface PS staining of 10^5 ES2 cells treated with compounds for 12 hr and re-suspended in binding buffer and labeled with Annexin V-PE and 7-AAD at RT for 15 min and analyzed by flow cytometry (Becton Dickinson, Mountain View, CA).
FIG. 16D illustrates ES2 cells were treated with compounds at indicated doses for 12 hr then re-suspended in 100 μL binding buffer with 5 μL of Annexin V-PE and 5 μL of 7-AAD to examine early apoptosis. After a 15 min incubation at RT, the cells were analyzed by flow cytometry using a FACSCalibur and CellQuest software.
Data set [11] concerns HS578T. The conditions noted are these: human.
The subject of data set [12] is T22. Briefly: MTT cytotoxicity assay, T22. The conditions noted are these: read-out: cytotoxicity IC50 T22, Tables 3A/4B/4C, BRCA2 + VE.
In data set [13] the test system is SSC90. The note with it: human.
Data set [14] deals with C2KmFvB1. The data set is described as follows: MTT cytotoxicity assay, C2KmFvB1. The note with it: read-out: cytotoxicity IC50 C2KmFvB1, Tables 3A/4B/4C, BRCA2 + Ve.

RPN13, sequence (Q16186 whole entry): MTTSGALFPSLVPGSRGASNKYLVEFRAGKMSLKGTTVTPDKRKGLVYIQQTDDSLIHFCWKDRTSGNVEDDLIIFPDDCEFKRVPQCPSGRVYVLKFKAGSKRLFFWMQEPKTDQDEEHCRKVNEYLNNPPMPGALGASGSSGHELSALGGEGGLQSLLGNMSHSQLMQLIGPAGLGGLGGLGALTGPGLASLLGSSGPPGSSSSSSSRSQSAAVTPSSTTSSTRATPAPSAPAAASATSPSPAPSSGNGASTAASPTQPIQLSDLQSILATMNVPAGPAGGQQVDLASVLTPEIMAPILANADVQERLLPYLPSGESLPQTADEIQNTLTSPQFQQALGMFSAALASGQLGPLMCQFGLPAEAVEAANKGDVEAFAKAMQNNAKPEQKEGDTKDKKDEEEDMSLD

Consider `CC1/C(=C\c2ccc([N+](=O)[O-])cc2)C(=O)/C(=C/c2ccc([N+](=O)[O-])cc2)CN1C(=O)[C@H](Cc1ccccc1)NC(=O)CCl` (some centres unmarked) [RA414], for which the MTD in data set [1] stood at 10 mg/kg. In addition, in data set [2], the IC50 was less than 40 nM. Further, the “competition with RA183B binding to RPN13” value in data set [3] is “inhibited by pre-incubation with RA414”.

Take `O=C(CCl)N[C@@H](Cc1ccccc1)C(=O)N1C/C(=C\c2ccc([N+](=O)[O-])cc2)C(=O)/C(=C/c2ccc([N+](=O)[O-])cc2)C1` [RA375]: the IC50 was 13 nM in data set [4], 44 nM in data set [5], 44 nM in data set [6] and 37 nM in [7]. Further, in [8], the “fold more potent than RA190 (4UbFL stabilization)” value is 4 fold. For the same molecule, the “fold more potent than bortezomib (4UbFL stabilization)” value in data set [8] came to 2 fold. Further, in [9], the “duration of proteasome inhibition in muscle” value is reported as greater than 72 h.

In the case of `C[C@H]1/C(=C\c2ccc([N+](=O)[O-])cc2)C(=O)/C(=C/c2ccc([N+](=O)[O-])cc2)CN1C(=O)[C@@H](N)Cc1ccccc1`, the IC50 in data set [7] is 20 nM; in [2] it was 24 nM; in data set [11], 40 nM; in data set [12] it was 1360 nM; in data set [13], 125 nM. Further, the MTD in data set [1] was 20 mg/kg. Further, the “surface display of Annexin V versus RA183” value in [10] was “more potently activated a biomarker of early apoptosis”.

With `N[C@@H](Cc1ccccc1)C(=O)N1C/C(=C\c2ccc([N+](=O)[O-])cc2)C(=O)/C(=C/c2ccc([N+](=O)[O-])cc2)C1` [RA183, reference compound], the IC50 in data set [6] was found to be 198 nM.

As for `N[C@@H](Cc1ccccc1)C(=O)N1C/C(=C\c2ccc(Cl)c(Cl)c2)C(=O)/C(=C/c2ccc(Cl)c(Cl)c2)C1` [RA190, reference compound], the IC50 in [14] turned out to be 436 nM; in data set [12] it was 16300 nM.
